{"source": "ChEMBL document CHEMBL4354844", "about": "“Discovery of Balovaptan, a Vasopressin 1a Receptor Antagonist for the Treatment of Autism Spectrum Disorder” (J Med Chem, 2020)", "key": {"[1]": {"target": "Vasopressin V1a receptor (Homo sapiens) (UniProt P37288)", "sequence (P37288 whole entry, looked up)": "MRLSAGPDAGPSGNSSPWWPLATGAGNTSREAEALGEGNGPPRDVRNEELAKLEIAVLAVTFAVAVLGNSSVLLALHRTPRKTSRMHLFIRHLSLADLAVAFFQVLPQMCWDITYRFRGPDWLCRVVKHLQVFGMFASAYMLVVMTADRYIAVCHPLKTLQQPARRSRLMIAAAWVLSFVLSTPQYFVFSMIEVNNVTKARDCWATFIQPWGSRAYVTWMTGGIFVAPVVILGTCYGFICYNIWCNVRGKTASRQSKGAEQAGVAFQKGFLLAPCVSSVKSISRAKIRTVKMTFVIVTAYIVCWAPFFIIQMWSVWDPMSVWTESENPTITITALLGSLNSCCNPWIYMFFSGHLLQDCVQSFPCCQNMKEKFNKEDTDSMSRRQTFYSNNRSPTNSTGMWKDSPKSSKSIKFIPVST", "assay": "Antagonist activity at human Gq5s-coupled V1a receptor expressed in CHO cells assessed as inhibition of vasopressin-induced calcium flux preincubated for 20 mins followed by vasopressin addition and measured for 5 mins by fluo-4-AM dye based FLIPR assay", "type": "functional, cell-based"}, "[2]": {"assay": "Selectivity ratio of Kb for antagonist activity at human V2 receptor to Kb for antagonist activity at human Gq5s-coupled V1a receptor expressed in CHO cells"}, "[3]": {"assay": "Selectivity ratio of Kb for antagonist activity at human […] receptor to Kb for antagonist activity at human Gq5s-coupled V1a receptor expressed in CHO cells"}, "[4]": {"target": "MDR1 (ABCB1, P-glycoprotein) (Homo sapiens, UniProt P08183)", "sequence (P08183 whole entry)": "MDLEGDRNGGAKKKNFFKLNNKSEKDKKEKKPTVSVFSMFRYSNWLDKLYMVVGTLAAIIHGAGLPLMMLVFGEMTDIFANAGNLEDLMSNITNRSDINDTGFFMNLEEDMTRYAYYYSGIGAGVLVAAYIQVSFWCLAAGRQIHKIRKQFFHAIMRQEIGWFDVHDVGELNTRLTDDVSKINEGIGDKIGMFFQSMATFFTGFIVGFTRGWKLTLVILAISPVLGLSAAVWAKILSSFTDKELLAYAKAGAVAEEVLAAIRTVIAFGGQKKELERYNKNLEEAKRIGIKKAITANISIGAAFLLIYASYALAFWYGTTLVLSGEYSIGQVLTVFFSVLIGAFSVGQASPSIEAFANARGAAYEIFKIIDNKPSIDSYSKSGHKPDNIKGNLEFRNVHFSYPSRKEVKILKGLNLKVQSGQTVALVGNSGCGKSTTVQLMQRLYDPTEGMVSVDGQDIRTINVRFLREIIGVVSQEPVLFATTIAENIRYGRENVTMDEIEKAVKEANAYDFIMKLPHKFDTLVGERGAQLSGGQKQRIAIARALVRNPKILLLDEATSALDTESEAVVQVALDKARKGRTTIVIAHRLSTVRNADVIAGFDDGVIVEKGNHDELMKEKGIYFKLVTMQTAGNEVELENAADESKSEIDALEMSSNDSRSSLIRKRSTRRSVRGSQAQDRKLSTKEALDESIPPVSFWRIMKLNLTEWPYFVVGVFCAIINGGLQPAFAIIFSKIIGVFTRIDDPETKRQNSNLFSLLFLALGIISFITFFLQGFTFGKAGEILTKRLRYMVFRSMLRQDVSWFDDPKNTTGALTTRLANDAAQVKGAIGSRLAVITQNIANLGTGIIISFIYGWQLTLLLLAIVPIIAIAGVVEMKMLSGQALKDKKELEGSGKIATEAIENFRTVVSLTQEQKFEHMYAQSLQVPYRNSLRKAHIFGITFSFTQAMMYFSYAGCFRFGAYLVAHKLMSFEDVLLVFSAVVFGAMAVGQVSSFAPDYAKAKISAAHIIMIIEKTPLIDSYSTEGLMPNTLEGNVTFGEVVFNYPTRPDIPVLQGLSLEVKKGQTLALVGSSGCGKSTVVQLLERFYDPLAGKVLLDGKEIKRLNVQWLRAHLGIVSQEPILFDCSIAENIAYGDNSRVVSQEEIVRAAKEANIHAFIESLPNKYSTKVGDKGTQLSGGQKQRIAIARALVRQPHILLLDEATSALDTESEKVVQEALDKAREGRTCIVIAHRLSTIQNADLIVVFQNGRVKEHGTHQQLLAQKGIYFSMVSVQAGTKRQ", "assay": "Substrate activity at human MDR1 expressed in LLC-PK1 cells assessed as efflux ratio of permeability at 1 uM measured after 3.5 hrs by lucifer yellow based scintillation counting or HPLC method", "type": "ADME, cell-based"}, "[5]": {"target": "5-hydroxytryptamine receptor 2B (Homo sapiens) (UniProt P41595)", "sequence (P41595 whole entry)": "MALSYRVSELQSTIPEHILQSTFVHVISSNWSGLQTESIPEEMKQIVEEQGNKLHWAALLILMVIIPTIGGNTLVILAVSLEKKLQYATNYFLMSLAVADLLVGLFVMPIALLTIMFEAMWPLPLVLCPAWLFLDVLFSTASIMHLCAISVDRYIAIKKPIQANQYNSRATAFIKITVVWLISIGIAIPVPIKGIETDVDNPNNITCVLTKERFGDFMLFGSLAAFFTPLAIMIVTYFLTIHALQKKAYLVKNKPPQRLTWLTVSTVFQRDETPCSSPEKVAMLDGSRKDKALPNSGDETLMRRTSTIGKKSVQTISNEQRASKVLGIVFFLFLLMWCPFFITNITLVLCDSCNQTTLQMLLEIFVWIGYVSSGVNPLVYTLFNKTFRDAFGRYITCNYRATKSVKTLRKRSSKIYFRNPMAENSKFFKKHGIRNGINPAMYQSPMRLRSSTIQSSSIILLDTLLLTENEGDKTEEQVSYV", "assay": "Antagonist activity at recombinant human 5HT2B receptor expressed in CHOK1 cells assessed as inhibition of serotonin-induced inositol phosphate production measured after 30 mins by HTRF assay", "type": "functional, cell-based"}, "Homo sapiens": {"organism": "Homo sapiens", "assay": "Selectivity ratio of Kb for antagonist activity at recombinant human 5HT2B receptor expressed in CHOK1 cells to Kb for antagonist activity at human Gq5s-coupled V1a receptor expressed in CHO cells", "type": "cell-based"}, "[6]": {"assay": "Volume of distribution in rat", "type": "ADME", "details": "in vivo"}, "[7]": {"assay": "Volume of distribution in dog", "type": "ADME, Canis lupus familiaris", "details": "in vivo"}, "[8]": {"assay": "Volume of distribution in cynomolgus monkey", "type": "ADME, Macaca fascicularis", "details": "in vivo"}, "[9]": {"assay": "Oral bioavailability in rat", "type": "ADME, organism-based", "details": "in vivo"}, "[10]": {"assay": "Oral bioavailability in cynomolgus monkey", "type": "ADME, organism-based, Macaca fascicularis", "details": "in vivo"}, "[11]": {"assay": "Protein binding in human plasma assessed as unbound fraction", "type": "ADME, cell-free"}, "Rattus norvegicus [12]": {"tested_on": "Rattus norvegicus", "assay": "In vivo receptor occupancy at V1a receptor in stress hyperresponsive Fischer F344 rat at 30 mg/kg, iv administered as bolus dose via catheter", "type": "functional"}, "Rattus norvegicus [13]": {"tested_on": "Rattus norvegicus", "assay": "Neuroprotective activity in stress hyperresponsive Fischer F344 rat assessed as change in perfusion in medial prefrontal at 30 mg/kg, iv administered as bolus dose via catheter by ASL-based MRI analysis relative to control", "type": "functional"}, "Rattus norvegicus [14]": {"tested_on": "Rattus norvegicus", "assay": "Neuroprotective activity in stress hyperresponsive Fischer F344 rat assessed as change in perfusion in primary motor cortex at 30 mg/kg, iv administered as bolus dose via catheter by ASL-based MRI analysis relative to control", "type": "functional"}, "Rattus norvegicus [15]": {"tested_on": "Rattus norvegicus", "assay": "Neuroprotective activity in stress hyperresponsive Fischer F344 rat assessed as change in perfusion in visual cortex at 30 mg/kg, iv administered as bolus dose via catheter by ASL-based MRI analysis relative to control", "type": "functional"}, "Rattus norvegicus [16]": {"tested_on": "Rattus norvegicus", "assay": "Neuroprotective activity in stress hyperresponsive Fischer F344 rat assessed as increase in perfusion in substantia nigra at 30 mg/kg, iv administered as bolus dose via catheter by ASL-based MRI analysis", "type": "functional, organism-based"}, "Rattus norvegicus [17]": {"tested_on": "Rattus norvegicus", "assay": "Neuroprotective activity in stress hyperresponsive Fischer F344 rat assessed as increase in perfusion in ventral tegmental area at 30 mg/kg, iv administered as bolus dose via catheter by ASL-based MRI analysis", "type": "functional, organism-based"}, "Rattus norvegicus [18]": {"tested_on": "Rattus norvegicus", "assay": "Neuroprotective activity in stress hyperresponsive Fischer F344 rat assessed as increase in perfusion in entorhinal piriform cortex at 30 mg/kg, iv administered as bolus dose via catheter by ASL-based MRI analysis", "type": "functional, organism-based"}, "Rattus norvegicus [19]": {"tested_on": "Rattus norvegicus", "assay": "Neuroprotective activity in stress hyperresponsive Fischer F344 rat assessed as increase in perfusion in hypothalamus at 30 mg/kg, iv administered as bolus dose via catheter by ASL-based MRI analysis", "type": "functional, organism-based"}, "Rattus norvegicus [20]": {"tested_on": "Rattus norvegicus", "assay": "Neuroprotective activity in stress hyperresponsive Fischer F344 rat assessed as increase in perfusion in raphe nuclei at 30 mg/kg, iv administered as bolus dose via catheter by ASL-based MRI analysis", "type": "functional, organism-based"}, "Rattus norvegicus [21]": {"tested_on": "Rattus norvegicus", "assay": "Neuroprotective activity in stress hyperresponsive Fischer F344 rat assessed as increase in perfusion in amygdala at 30 mg/kg, iv administered as bolus dose via catheter by ASL-based MRI analysis", "type": "functional, organism-based"}, "Rattus norvegicus [22]": {"tested_on": "Rattus norvegicus", "assay": "Neuroprotective activity in stress hyperresponsive Fischer F344 rat assessed as change in perfusion in caudate putamen at 30 mg/kg, iv administered as bolus dose via catheter by ASL-based MRI analysis", "type": "functional, organism-based"}, "Rattus norvegicus [23]": {"tested_on": "Rattus norvegicus", "assay": "Neuroprotective activity in stress hyperresponsive Fischer F344 rat assessed as change in perfusion in dorsal hippocampus at 30 mg/kg, iv administered as bolus dose via catheter by ASL-based MRI analysis", "type": "functional, organism-based"}, "Rattus norvegicus [24]": {"tested_on": "Rattus norvegicus", "assay": "Neuroprotective activity in stress hyperresponsive Fischer F344 rat assessed as change in perfusion in superior colliculi at 30 mg/kg, iv administered as bolus dose via catheter by ASL-based MRI analysis", "type": "functional, organism-based"}, "Rattus norvegicus [25]": {"tested_on": "Rattus norvegicus", "assay": "Neuroprotective activity in stress hyperresponsive Fischer F344 rat assessed as change in perfusion in inferior colliculi at 30 mg/kg, iv administered as bolus dose via catheter by ASL-based MRI analysis", "type": "functional, organism-based"}, "Rattus norvegicus [26]": {"tested_on": "Rattus norvegicus", "assay": "Neuroprotective activity in iv dosed stress hyperresponsive Fischer F344 rat assessed as improvement in neural activity pattern administered as bolus dose via catheter by ASL-based MRI analysis", "type": "functional, organism-based"}}, "note": "Activity calls are given as the source filed them. The rule behind the calls is not given here.", "data": [{"smiles": "CN1Cc2cc(Cl)ccc2-n2c(nnc2[C@H]2CC[C@H](Oc3ccccn3)CC2)C1", "note": "[BALOVAPTAN]", "values": [{"measurement": "Kb", "setting": "[1]", "result": 0.00039, "unit": "µM"}, {"measurement": "Selectivity ratio", "setting": "[2]", "result": 3888}, {"measurement": "Selectivity ratio", "setting": "[3]", "result": 2735}, {"measurement": "efflux ratio at 3.5 h, 1 µM", "setting": "[4]", "result": "< 2"}, {"measurement": "Kb", "setting": "[5]", "result": 0.366, "unit": "µM"}, {"measurement": "Selectivity ratio", "setting": "Homo sapiens", "result": 938}, {"measurement": "Vd", "setting": "[6]", "result": "0.5 to 1.3", "unit": "L/kg"}, {"measurement": "Vd", "setting": "[7]", "result": "0.5 to 1.3", "unit": "L/kg"}, {"measurement": "Vd", "setting": "[8]", "result": "0.5 to 1.3", "unit": "L/kg"}, {"measurement": "bioavailability", "setting": "[9]", "result": 40, "unit": "%"}, {"measurement": "bioavailability", "setting": "[10]", "result": 130, "unit": "%"}, {"measurement": "fraction unbound", "setting": "[11]", "result": 0.13}, {"measurement": "Occ", "setting": "Rattus norvegicus [12]", "result": ">90", "unit": "%"}, {"measurement": "Activity", "setting": "Rattus norvegicus [13]", "result": -20, "unit": "%"}, {"measurement": "Activity", "setting": "Rattus norvegicus [14]", "result": -20, "unit": "%"}, {"measurement": "Activity", "setting": "Rattus norvegicus [15]", "result": -20, "unit": "%"}, {"measurement": "Activity", "setting": "Rattus norvegicus [16]", "result": "Active"}, {"measurement": "Activity", "setting": "Rattus norvegicus [17]", "result": "Active"}, {"measurement": "Activity", "setting": "Rattus norvegicus [18]", "result": "Active"}, {"measurement": "Activity", "setting": "Rattus norvegicus [19]", "result": "Active"}, {"measurement": "Activity", "setting": "Rattus norvegicus [20]", "result": "Active"}, {"measurement": "Activity", "setting": "Rattus norvegicus [21]", "result": "Active"}, {"measurement": "Activity", "setting": "Rattus norvegicus [22]", "result": "Active"}, {"measurement": "Activity", "setting": "Rattus norvegicus [23]", "result": "Active"}, {"measurement": "Activity", "setting": "Rattus norvegicus [24]", "result": "Active"}, {"measurement": "Activity", "setting": "Rattus norvegicus [25]", "result": "Active"}, {"measurement": "Activity", "setting": "Rattus norvegicus [26]", "result": "Dose-dependent effect"}]}]}
